From US20200375949A1, “BISPHENOL COMPOUNDS” (THE TRUSTEES OF THE UNIVERSITY OF PENNSYLVANIA, priority 2017, published 2020)
Converted amounts (≈) assume the structure as drawn. “And” between values parts separate entries of the source, which are not always exact repeats. Equal entries are not always repeated. Where two headings read alike, the source gives them in different places.

How the values were obtained:
[1] = test system: Streptococcus mutans wild-type strain UA159; assay: MIC assay, S. mutans; type: cell-based
Text: (§1) Streptococcus mutans wild-type strain UA159 was provided by Dr. Bettina Buttaro from Temple University Medical School, Philadelphia, Pa. Streptococcus gordonii strain DL1 and Streptococcus sanguinis strain 10904 were provided by Dr. Robert G. Quivey from University of Rochester Medical School. Streptococcus gordonii strain DL1 may be obtained from the American Type Culture Collection under accession #49818. Streptococcus sanguinis strain 10904 may be obtained from the National Collection of Type Cultures under accession #10904. Bacteria were routinely maintained on in Bacto™ Todd-Hewitt (TH) agar plates and liquid cultures were grown in Bacto™ Todd-Hewitt broth (THB). For growth of biofilms, THB was supplemented with 0.1% sucrose. Incubation was stagnant at 37° C. Bacterial strains Methicillin-Resistant Staphylococcus aureus HPV107, Staphylococcus epidermidis Fussel [NCTC 11047, R. Hugh 2466], Streptococcus sobrinus SL1 [CCM 6070, CNCTC 9/89], Enterococcus faecalis NCTC 775 [DSM 20478, JCM 8726, NCDO 581, Tissier], Pseudomonas aeruginosa [CCEB 481, MDB strain BU 277, NCIB 8295, NCPPB 1965, NCTC 10332, NRRL B-771, R. Hugh 815], Serratia marcescens BS 303 [CDC 813-60, NCIB 9155, NCTC 10211], and Acinetobacter baumannii 2208 [81, DSM 6974] were purchased from the American Type Culture Collection.
(§2) Stock solutions of compounds (10 mM) were serial diluted (200 μL, 100 μL, 50 μL, 10 μL, and 2 μL) in THB media in flat-bottom 96-well microtiter plates (total volume 100 μL). Bacterial cultures were grown in brain heart infusion or nutrient broth media to mid-exponential phase, back diluted to an OD of 0.1 and then inoculated into the 96-well plate to reach a final volume of 200 μL. Plates were inoculated at 37° C. in 5% CO2 for 20-24 hours upon which time wells were evaluated visually for bacterial growth and/or the wells' OD630 was evaluated via spectrophotometer. […] DMSO controls corresponding to each test concentration were performed. Biological triplicates were performed to confirm results.

[2] = test system: Streptococcus sanguinis strain 10904; assay: MIC assay, S. sanguinis; type: cell-based; details: 5% CO2, 37° C., 20-24 hours
Text: as §1, §2

[3] = test system: Streptococcus gordonii strain DL1; assay: MIC assay, S. gordonii; type: cell-based; details: 5% CO2, 37° C., 20-24 hours
Text: as §1, §2

S. mutans = S. mutans MBC assay; type: cell-based, Streptococcus mutans; details: for bacteriostatic or bactericidal properties (regrow analysis, MIC vs MBC): S. mutans; for MBC: Streptococcus mutans, 3-log reduction in CFU count (99.9% bacterial death)
Protocol: MIC assay was performed (above) and each well diluted (log-dilution) into a new 96-well microtiter plate. Five μL from each dilution was then plated on THB agar plates and incubated for 24 hours. Colony counts were performed to determine MBC which is defined as the concentration which there is a 3-log reduction in CFU count which corresponds to 99.9% bacterial death.

[4] = test system: red blood cells (mechanically defibrinated sheep blood); assay: Hemolysis assay (cell lysis); type: cell-based; parameters: red blood cell lysis: unit not given here; details: for red blood cell lysis: 1 hour, 37° C.; for concentration at which the membrane is perturbed: stated under the cell lysis example
Protocol: The effects of the compounds described herein to lyse cells was evaluated in this example. Hemolysis assays were performed on mechanically defibrinated sheep blood (Hemostat Labs: DSB030). 1.5 mL of blood was placed into a microcentrifuge tube and centrifuged at 10,000 rpm for ten minutes. The supernatant was removed and then the cells were resuspended with 1 mL of phosphate-buffered saline (PBS). The suspension was centrifuged as previously, the supernatant was removed, and cells were resuspended two more times. The final cell suspension was diluted twentyfold with PBS. The twentyfold suspension dilution was then aliquoted into microcentrifuge tubes containing compound serially diluted in PBS. TritonX (1% by volume) served as a positive control (100% lysis marker) and sterile PBS served as a negative control (0% lysis marker). Samples were then placed in an incubator at 37° C. and shaken at 200 rpm. After 1 hour, the samples were centrifuged at 10,000 rpm for ten minutes. The absorbance of the supernatant was measured with a UV spectrometer at a 540 nm wavelength. See, e.g., Peng, Chem. Comm. 2011, 47, 4896-4898.

membrane = assay: SYTOX green cell permeabilization assay; type: cell-based; details: SYTOX green nucleic acid stain, FIGS. 1A-1F
Protocol: This example was performed to measure cell viability (i.e., cell permeabilization) by using a molecule that fluoresces when bound to DNA. The assay performed was a SYTOX™ assay green nucleic acid stain using compounds 1H and 2E. Specifically, when the membrane was perturbed, the molecule entered the cell, bound to DNA and fluoresced. The positive and negative controls were a quaternary ammonium compound (QAC; 12,3,2,3,12) and vancomycin, respectively. See the results shown in, e.g., FIGS. 1A-1F.

S. mutans biofilm = S. mutans biofilm model / crystal violet; type: cell-based, Streptococcus mutans; details: at concentrations of 250 μM or lower
Protocol: Stock solutions of the compounds (10 mM) were serial diluted in THB media supplemented with 0.1% sucrose (w/v) in flat-bottom 96-well microtiter plates (total volume 100 μL). Bacterial cultures were grown to mid-exponential phase, back diluted to an OD of 0.1 and then inoculated into the 96-well plate to reach a final volume of 200 μL. Plates were incubated at 37° C. in 5% CO2 for 24 hours (early stage biofilm) upon which time wells were evaluated visually for bacterial growth. DMSO controls corresponding to each test concentration were performed. Biological triplicates were performed to confirm results. Biofilm assay was performed (above) and wells are washed with 200 μL of DI H2O and dried for 24 hours at 37° C. Dried plates were incubated for 10 minutes at room temperature with 50 μL of 1% w/v crystal violet (25% ethanol in H2O). Excess crystal violet was removed via aspiration. 200 μL of DI H2O was added to each well and aspirated (repeat until all excess crystal violet is removed). Plates were then inverted and dried at 37° C. for 3-5 hours. Crystal violet stain biofilm mass was dissolved with 200 μL of 95% ethanol, 100 μL of which was then transferred to a fresh flat-bottom 96-well plate for absorbance measurements at 595 nm. DMSO controls corresponding to each test concentration were performed. Biological triplicate was performed to confirm results. […]

[5] = test system: Streptococcus mutans wild-type strain UA159; details: original assays in aerobic environment; cited from earlier work
[6] = test system: Streptococcus mutans wild-type strain UA159; assay: MIC assay, S. mutans; type: cell-based; details: read-out: MIC S. mutans, aerobic conditions
[7] = planktonic, 5% CO2, 37° C., 20-24 hours
[8] = Concentration 500 μM, TritonX 100% lysis, PBS 0% lysis

| Structure (SMILES) | MIC [1, 7] | MIC [2] | MIC [3] | bacteriostatic or bactericidal properties (regrow analysis, MIC vs MBC) (S. mutans) | MBC (S. mutans) | red blood cell lysis ([4]; Concentration 0.25 μM) | red blood cell lysis ([4]; Concentration 0.5 μM) | red blood cell lysis ([4]; Concentration 1 μM) | red blood cell lysis ([4]; Concentration 2 μM) | red blood cell lysis ([4]; Concentration 4 μM) | red blood cell lysis ([4]; Concentration 8 μM) | red blood cell lysis ([4]; Concentration 16 μM) | red blood cell lysis ([4]; Concentration 32 μM) | red blood cell lysis ([4]; Concentration 63 μM) | red blood cell lysis ([4]; Concentration 125 μM) | red blood cell lysis ([4]; Concentration 250 μM) | red blood cell lysis [4, 8] | concentration at which the membrane is perturbed [4] | concentration at which the membrane is perturbed (membrane) | other results |
| --- | --- | --- | --- | --- | --- | --- | --- | --- | --- | --- | --- | --- | --- | --- | --- | --- | --- | --- | --- | --- |
| CC(C)(C)c1cc(-c2c(O)ccc3cc(Br)ccc23)cc(C(C)(C)C)c1O [Compound B5, 6-Bromo-1-(3,5-di-tert-butyl-4-hydroxyphenyl)naphthalen-2-ol] | 8 µM | 4 µM (≈ 1.71 µg/mL) | 16 µM (≈ 6.84 µg/mL) | bacteriostatic | 125 µM (≈ 53.4 µg/mL) | – | – | – | – | – | – | – | – | – | – | – | – | – | – | – |
| CC(C)(C)c1ccc(CCc2ccc(C(C)(C)C)c(O)c2)cc1O [Compound C2, 5,5′-(Ethane-1,2-diyl)bis(2-(tert-butyl)phenol)] | 2 µM | 2.5 µM (≈ 0.816 µg/mL) | 1.25 µM (≈ 0.408 µg/mL) | bactericidal | 4 µM (≈ 1.31 µg/mL) | 0.02 | 0.01 | −0.02 | −0.02 | −0.01 | −0.03 | −0.03 | 0.07 | 0.29 | 0.43 | 0.70 | 0.48 | 32 µM | 32 µM | lysis of blood cells [4]: lyses blood cells at high concentrations |
| CCCc1cc(-c2c(O)ccc3cc(OC)ccc23)cc(C(C)(C)C)c1O [Compound B11, 1-(3-(tert-Butyl)-4-hydroxy-5-propylphenyl)-6-methoxynaphthalen-2-ol] | 16 µM | 8 µM (≈ 2.92 µg/mL) | 16 µM (≈ 5.83 µg/mL) | bactericidal | 63 µM (≈ 23 µg/mL) | – | – | – | – | – | – | – | – | – | – | – | – | – | – | – |
| Cc1cc(O)c(C)c(O)c1-c1cc(C(C)(C)C)c(O)c(C(C)(C)C)c1 [Compound A2, 3′,5′-Di-tert-3,6-methyl-[1,1′-biphenyl]-2,4,4′-triol] | 32 µM | 32 µM (≈ 11 µg/mL) | 32 µM (≈ 11 µg/mL) | – | 63 µM (≈ 21.6 µg/mL) | – | – | – | – | – | – | – | – | – | – | – | – | – | – | – |
| C=CCc1ccc(O)c(-c2ccc(O)c(CC=C)c2)c1 [Compound A1, honokiol, reference compound] | 250 µM | 125 µM (≈ 33.3 µg/mL) | 125 µM (≈ 33.3 µg/mL) | – | – | – | – | – | – | – | – | – | – | – | – | – | – | – | – | MIC ([1]; 5% CO2-supplemented environment): 66.6 µg/mL; bactericidal activity (S. mutans; at concentrations of 250 μM or lower): not bactericidal; inhibition of biofilm growth (S. mutans biofilm): unable to inhibit biofilm growth; MIC S. mutans, literature value [5]: 10 µg/mL (≈ 37.5 µM); MIC [6]: 125 µM and 33.3 µg/mL |
| CC(C)(C)c1ccc(Cc2ccc(C(C)(C)C)c(O)c2)cc1O [Compound 3N, 5,5′-methylenebis(2-(tert-butyl)phenol)] | 2 µM | – | – | – | – | 0.13 | −0.02 | −0.02 | −0.02 | 0.11 | −0.03 | −0.02 | 0.02 | 0.38 | 0.43 | 0.34 | 0.74 | 32 µM | 32 µM | – |
